Several values for one entry are separate records, joined by “and”; a condition that tells them apart may be missing. Identical values can stand only once. Like-named read-outs stand apart in the source and are kept apart here. Marks after values point to notes of the source that are not given here.
Key:
[1] = tested on: M-Hela; test: Cytotoxicity assay (Cytell Cell Imaging, DAPI/propidium iodide), cancer cell line; format: cell-based; conditions: Homo sapiens, read-out: IC50 Cancer Cell Line M-Hela
[2] = tested on: Chang liver cell line; test: Cytotoxicity assay (Cytell Cell Imaging), normal cell line; format: cell-based; conditions: Homo sapiens, read-out: IC50 Normal Cell Line Chang Liver
[3] = tested on: P388 murine leukemia; test: In vivo anti-tumor activity, i.p. implanted leukemia; design: species or system BDF1 hybrid male mice; conditions: for ILS / MST ± SD / antitumor (anti-leukemic) activity, in words: days 1, 5, 9; for ILS / MST ± SD: P388; for Survival: day 60; for Survivors/Total: survivors on day 60; for antitumor (anti-leukemic) activity, in words: P388, dose range 18–83 mg/kg/day i.p.
Method: Animals. In vivo experiments were performed using the BDF1 hybrid male mice of 22–24 g weight. The experimental animals were caged in a standard vivarium in 12 h light conditions with free access to food and water. All manipulations with the animals were performed in accordance with the solutions of the Commission on Bioethics of the Institute of Problems of Chemical Physics, Russian Academy of Sciences (IPCP RAS).
Anti-tumor activity. The tumors were transplanted intraperitoneally (i.p.) in accordance with a standard procedure inoculum: 10^6 tumor cells in isotonic solution of NaCl, V = 0.2 cm^3 (leukemia P388). Original compounds were injected intraperitoneally as aqueous solution. Doses from 18 to 83 mg/kg/day and the mode of administration on days 1, 5, and 9 after transplantation were used. In each experiment, a single group of tumor-bearing animals not injected with the compounds served as the control group. Each group consisted of six mice. The animals were observed daily for survival for a minimum of 60 days. The efficacy of the therapy against leukemia (defined as increase in lifespan—ILS) was assessed as the percentage of the median survival time (MST) of the treated group (t) to that of the control group (c): ILS(%) = (MSTt/MSTc) × 100.
Statistics. The experiments were carried out in triplicate. The data are presented in the form X ± SD (mean ± standard deviation). The significance of the differences between the groups was assessed using Student’s t-test. Values of p < 0.05 were considered statistically significant. The data were processed statistically using GraphPad Prism.

[4] = Water solubility (selection for parenteral administration); format: physicochemical
[5] = tested on: Acinetobacter calcoaceticus VKPM B-10353; test: Biofilm formation, crystal violet assay; format: cell-based; conditions: A. calcoaceticus VKPM B-10353, control = 100%
Method: (§1) Bacterial strains and cultivation conditions. For the detection of biofilms, formation strains Vibrio aquamarinus DSM 26054 and Acinetobacter calcoaceticus VKPM B-10353 were used. These strains form biofilms, making them useful for studying biofilms.
(§2) The bacterial strains Acinetobacter calcoaceticus VKPM B-10353, E. coli MG1655 (pRecA-lux), and E. coli MG1655 (pSoxS-lux) were cultivated in Luria–Bertani (LB) medium under constant shaking to early exponential phase at 37 °C. Cells were used immediately for stress induction tests. One hundred micrograms of ampicillin per milliliter were added into LB medium at cultivation of E. coli MG1655 (pRecA-lux) and E. coli MG1655 (pSoxS-lux). Strain V. aquamarinus DSM 26054 was grown in LB medium supplemented with 3% NaCl.
(§3) The test compounds were dissolved in DMSO to the concentration of 1 × 10^−2 M. Then, they were diluted with ethanol. The control solutions were analogous dilutions of DMSO in ethanol. The tested compounds were also compared with the standard antibiotic azithromycin. Azithromycin was dissolved in DMSO to the concentration of 5 × 10^−3 M and then diluted with deionized water.
(§4) Test system for evaluation of biofilms production. To quantify the formation of biofilms, the crystal violet assay was used, with some modifications. The necessary concentrations of the test compounds were prepared as described above.
(§5) V. aquamarinus DSM 26054 was cultivated for 24 h in LB medium supplemented with 3% NaCl in the Innova 40R shaker incubator (New Brunswick Scientific, USA) at 25 °C and 200 rpm. A. calcoaceticus VKPM B-10353 was cultivated for 24 h in LB medium in the Innova 40R shaker incubator (New Brunswick Scientific, Enfield, CT, USA) at 30 °C and 200 rpm. Then, the suspensions of the daily culture of V. aquamarinus DSM 26054 and A. calcoaceticus VKPM B-10353 were diluted with LB medium supplemented with 3% NaCl to the density of 1 × 10^8 cells/mL.
(§6) The resulting suspension (180 μL) was added to the wells of a polystyrene microplate (Nuova Aptaca, Canelli, Italy). To some of the wells, 20 μL of the test substances at various concentrations were added. Since solvents used could also influence the biofilm formation, 20 μL of the appropriate solvent was added to the other part of the wells at same dilutions (control). Six replicates were done for each treatment and control. The microplate was covered with a lid and wrapped with Parafilm (Bemis Company, Inc., Oshkosh, WI, USA).
(§7) After incubation at 25 °C for 72 h, biofilms were stained. The contents in the wells were removed by means of a dispenser. The wells were then carefully washed three times with 250 μL of sterile saline. The microplates were shaken to remove all non-adherent bacteria. Biofilms were fixed with 200 μL of 96% ethanol for 15 min. After the microplates had dried in air, 200 μL of 0.5% crystal violet was introduced into the wells. After 10 min, the dye was removed. The excess dye was removed by washing with water three times. After the microplates were air-dried, the dye in the wells bound to biofilms was dissolved with 200 μL of 96% ethanol. The extraction level (absorption) of crystal violet by ethanol was measured after 60 minutes at a wavelength of 570 nm using a FLUOstar Omega microplate reader (BMG Labtech, Offenburg, Germany) in optical density units (OD570). The intensity of biofilm formation directly corresponds to the intensity of staining of the contents of the wells with the dye. Biofilm formation was determined by the difference between the mean OD readings obtained in the presence of compounds and the control.
(§8) Each experiment was performed in triplicate. The values were expressed as mean + SD. Student’s t-test was used to compare these values. Differences were considered statistically significant at p < 0.05.

[6] = tested on: Vibrio aquamarinus DSM 26054; test: Biofilm formation, crystal violet assay; format: cell-based; conditions: V. aquamarinus DSM 26054, control = 100%
Method: as §1, §2, §3, §4, §5, §6, §7, §8

[7] = tested on: Escherichia coli MG1655 (pRecA-lux); test: Genotoxicity, bacterial lux-biosensor; format: cell-based
Description: (§9) E. coli MG1655 (pRecA-lux) was used for the evaluation of the genotoxicity of the synthesized compounds. The biosensor with the PrecA promotor fixes the presence of the factors causing damage of DNA in a cell. The biosensor E. coli MG1655 (pSoxS-lux) was used for the evaluation of prooxidant activity. The biosensor with the PsoxS promoter fixes the production of superoxide anion and NO [75]. Bioluminescent strains were obtained by the transformation of E. coli MG1655 by hybrid plasmids pRecA-lux, pSoxS-lux. The gene cassette luxCDABE Photorhabdus luminescens under the control PrecA promoters was used in this biosensor. This plasmid was created on the basis of pBR322 and contained a selective marker of ampicillin resistance (Amp gene). The strains were kindly furnished by Manukhov I.V., Federal State Unitary Enterprise “GosNIIGenetika”).
as §2
(§10) Biosensors assay procedure. The detailed protocol of toxicity testing by means of a bacterial lux-biosensors is described in the article.
(§11) Calculation. The criterion of toxic influence was bioluminescence intensity change of the test object in the researched sample in comparison with the control sample.
(§12) The induction factor (I) was defined as the relation of luminescence intensity of a lux-biosensor suspension containing tested sample (Lc) to the luminescence intensity of a lux-biosensor control suspension (Lk): I = Lc/Lk.
If at significant differences from control induction factor values were ≤2, the detected genotoxic effect was evaluated as “weak”, if they were in the range from 2 to 10 as “medium”, and above 10 as “strong”. All the experiments were carried out three times independently.
(§13) Difference reliability of bioluminescence in experiment from control value was estimated by t-criterion with the help of Excel software. The conclusions about sample toxicity were made at p < 0.05.

[8] = tested on: E. coli MG1655 (pSoxS-lux); test: Prooxidant activity, bacterial lux-biosensor; format: cell-based, Escherichia coli
Description: as §9, §2, §10, §11, §12, §13

O=C(Nc1ccccc1)N1CCCC1c1cc2c(cc1O)OCO2 (centres unmarked) [5b, 2-(6-Hydroxybenzo[d][1,3]dioxol-5-yl)-N-phenylpyrrolidine-1-carboxamide]
IC50 ([1]; M-HeLa): > 100 µM
IC50 [2]: > 100 µM
ILS ([3]; 18 mg/kg/day i.p.): 177%
MST ± SD ([3]; 18 mg/kg/day i.p.): 27.7 ± 10.3 days
Survival ([3]; 18 mg/kg/day): 33%
ILS ([3]; 26 mg/kg/day i.p.): 165%
MST ± SD ([3]; 26 mg/kg/day i.p.): 26.5 ± 10.6 days
Survival ([3]; 26 mg/kg/day): 33%
ILS ([3]; 40 mg/kg/day i.p.): 160%
MST ± SD ([3]; 40 mg/kg/day i.p.): 26.0 ± 10.8 days
Survival ([3]; 40 mg/kg/day): 33%
ILS ([3]; 55 mg/kg/day i.p.): 80%
MST ± SD ([3]; 55 mg/kg/day i.p.): 18.0 ± 8.4 days
Survival ([3]; 55 mg/kg/day): 17%
ILS ([3]; 83 mg/kg/day i.p.): 0%
MST ± SD ([3]; 83 mg/kg/day i.p.): 9.7 ± 0.2 days
Survival ([3]; 83 mg/kg/day): 0%
Survivors/Total ([3]; 83 mg/kg/day): 0/6
antitumor (anti-leukemic) activity, in words [3]: pronounced anti-leukemic activity
solubility in water, in words [4]: water-soluble

CN(C)CCNC(=O)N1CCCC1c1cc2c(cc1O)OCO2.O=C(O)C(F)(F)F (centres unmarked) [5h, 2-(2-(6-Hydroxybenzo[d][1,3]dioxol-5-yl)pyrrolidine-1-carboxamido)-N,N-dimethylethan-1-aminium 2,2,2-trifluoroacetate]
IC50 ([1]; M-HeLa): > 100 µM
IC50 [2]: > 100 µM
ILS ([3]; 18 mg/kg/day i.p.): 276%
MST ± SD ([3]; 18 mg/kg/day i.p.): 35.7 ± 10.9 days
Survival ([3]; 18 mg/kg/day): 50%
Survivors/Total ([3]; 18 mg/kg/day): 3/6
ILS ([3]; 26 mg/kg/day i.p.): 95%
MST ± SD ([3]; 26 mg/kg/day i.p.): 18.5 ± 8.3 days
Survival ([3]; 26 mg/kg/day): 17%
Survivors/Total ([3]; 26 mg/kg/day): 1/6
ILS ([3]; 40 mg/kg/day i.p.): 447%
MST ± SD ([3]; 40 mg/kg/day i.p.): 52.0 ± 8.0 days
Survival ([3]; 40 mg/kg/day): 83%
Survivors/Total ([3]; 40 mg/kg/day): 5/6
ILS ([3]; 55 mg/kg/day i.p.): 300%
MST ± SD ([3]; 55 mg/kg/day i.p.): 38.0 ± 9.9 days
Survival ([3]; 55 mg/kg/day): 50%
Survivors/Total ([3]; 55 mg/kg/day): 3/6
ILS ([3]; 83 mg/kg/day i.p.): 100%
MST ± SD ([3]; 83 mg/kg/day i.p.): 19.0 ± 8.2 days
Survival ([3]; 83 mg/kg/day): 17%
Survivors/Total ([3]; 83 mg/kg/day): 1/6
antitumor (anti-leukemic) activity, in words [3]: pronounced anti-leukemic activity
solubility in water, in words [4]: water-soluble

O=C(Nc1ccc(F)cc1)N1CCCC1c1ccc(Nc2c([N+](=O)[O-])c(Cl)cc3c2no[n+]3[O-])cc1O (centres unmarked) [6e, 6-Chloro-4-((4-(1-((4-fluorophenyl)carbamoyl)pyrrolidin-2-yl)-3-hydroxyphenyl)amino)-5-nitrobenzo[c][1,2,5]oxadiazole 1-oxide]
IC50 ([1]; M-Hela, tested at 1–100 µM, three independent experiments): 26 ± 1.8 µM
IC50 ([2]; tested at 1–100 µM, three independent experiments): 48 ± 3 µM
Biofilm Formation ([5]; 1 × 10^−5 M): 86.50%
Biofilm Formation ([5]; 1 × 10^−6 M): 53.27 * %
Biofilm Formation ([5]; 1 × 10^−7 M): 55.40 * %
Biofilm Formation ([5]; 1 × 10^−8 M): 47.66 * %
Biofilm Formation ([5]; 1 × 10^−9 M): 87.92 * %
Biofilm Formation ([6]; 1 × 10^−5 M): 39.57 * %
Biofilm Formation ([6]; 1 × 10^−6 M): 26.02 * %
Biofilm Formation ([6]; 1 × 10^−7 M): 11.01% and 11.01 * %
Biofilm Formation ([6]; 1 × 10^−8 M): 17.96 * %
Biofilm Formation ([6]; 1 × 10^−9 M): 67.29%
detected genotoxic effect, class ([7]; concentration range of 10^−9–10^−5 M): medium (in the range from 2 to 10)
Genotoxicity (induction factor, I) ([7]; with metabolic activation (+S9), 10^−5 M): 1.24 ± 0.02
Genotoxicity (induction factor, I) ([7]; with metabolic activation (+S9), 10^−6 M): 1.47 ± 0.04
Genotoxicity (induction factor, I) ([7]; with metabolic activation (+S9), 10^−7 M): 1.45 ± 0.02
Genotoxicity (induction factor, I) ([7]; with metabolic activation (+S9), 10^−8 M): 1.35 ± 0.04
Genotoxicity (induction factor, I) ([7]; with metabolic activation (+S9), 10^−9 M): 1.43 ± 0.01
Genotoxicity (induction factor, I) ([7]; without metabolic activation (-S9), 10^−5 M): 2.00 ± 0.02
Genotoxicity (induction factor, I) ([7]; without metabolic activation (-S9), 10^−6 M): 2.39 ± 0.02
Genotoxicity (induction factor, I) ([7]; without metabolic activation (-S9), 10^−7 M): 2.46 ± 0.02
Genotoxicity (induction factor, I) ([7]; without metabolic activation (-S9), 10^−8 M): 2.74 ± 0.04
Genotoxicity (induction factor, I) ([7]; without metabolic activation (-S9), 10^−9 M): 2.56 ± 0.10
Prooxidant activity (induction factor) ([8]; 10^−5 M): 0.84 ± 0.04
Prooxidant activity (induction factor) ([8]; 10^−6 M): 1.34 ± 0.10
Prooxidant activity (induction factor) ([8]; 10^−7 M): 1.85 ± 0.15
prooxidant response, in words ([8]; 10^−7 M): weak response
Prooxidant activity (induction factor) ([8]; 10^−8 M): 1.25 ± 0.28
Prooxidant activity (induction factor) ([8]; 10^−9 M): 0.93 ± 0.03
melting point: 175 to 177 °C (dec.)

— publication PMC6749236, “Synthesis of Novel 2-(Het)arylpyrrolidine Derivatives and Evaluation of Their Anticancer and Anti-Biofilm Activity” (Molecules, 2019)
